Assay results taken from US20090281049A1, “New use of ginsenoside compound-k in manufacturing medicaments” (priority 2006, published 2009).

Tests used:
[1] = system: carrageenan-induced acute inflammation in mice; assay: Carrageenan-induced paw edema in mice; format: in vivo, Kunming mice
[2] = system: Collagen Type II (CII) induced arthritis in rats; assay: Treatment effect on Collagen Type II (CII) induced arthritis in rats; format: in vivo, Rat, SD strain
Experimental: Inflammation-induced agent: Collagen Type II was dissolved in 0.1 mol/L acetic acid to make final concentration be 2 mg/ml collagen solution, and held in 4° C. overnight. The Collagen Type II solution was added to cold Freund's Adjuvant Incomplete by drops (Collagen Type II: Freund's Adjuvant Incomplete=1:1) on the next day, emulsified completely (Type II Collagen solution: Freund's Adjuvant Incomplete=1:1), and the final concentration of Collagen Type II was 1 mg/ml. The Collagen Type II emulsion was reserved in a refrigerator at 4° C.
Immune method: Each rat was immunized by being injected subcutaneously at 5 points on the back with 0.1 ml emulsion in each point, total of […] (contained 0.5 mg Collagen Type II), and immunized again in the same way 7 days later. An emulsion of 0.1 mol/L acetic acid and Freund's Adjuvant Incomplete was injected in control group. The swell values of the arthrosis in right hind ankle and foot were measured respectively by using a hydroplethismometer before injection and 20 days after immunization.
Collagen Type II (CII) and Freund's Adjuvant Incomplete were ground into emulsion and were injected subcutaneously into the back of the rats for immunization. Until the 19th day, most parts of the pedal joint of the rats began to swell. Picked 40 rats out which were with swelled pedal joint and divided them into […] subsequently, i.e. 8 rats in each group. They are respectively […]: Ginsenoside Compound-K, 10 mg/kg, iv, medium dose group: Ginsenoside Compound-K, 5 mg/kg, iv, small dose group: Ginsenoside Compound-K, 2.5 mg/kg, iv, Enbrel group: 9 mg/kg, sc, Tripterygium Wilfordii Hook group: 1.5 mg/kg, po. and blank control group: physiological saline 10 mg/kg, iv. The rats were administered for 8 days consecutively. The swell value of the foot was measured respectively by using hydroplethismometer before inflammation induced and at different time after the onset of symptoms, then calculated swell rate and prohibition rate, and compared the differences among groups with t test.

## CC(C)=CCC[C@](C)(O[C@@H]1O[C@H](CO)[C@@H](O)[C@H](O)[C@H]1O)[C@H]1CC[C@]2(C)[C@@H]1[C@H](O)C[C@@H]1[C@@]3(C)CC[C@H](O)C(C)(C)[C@@H]3CC[C@]12C [Ginsenoside Compound-K, ginsenoside Compound-K]
[1]; 2.5 mg/kg iv, 0 h
  swell value: 1.49 ± 0.15 mL
[1]; 2.5 mg/kg iv, 1 h
  inhibition rate: <14.70> %
  swell rate: (66.63 ± 7.82) %
  swell value: 2.36 ± 0.22 mL
[1]; 2.5 mg/kg iv, 2 h
  inhibition rate: <12.30> %
  swell rate: (64.26 ± 14.54) %
  swell value: 2.43 ± 0.23 mL
[1]; 2.5 mg/kg iv, 4 h
  inhibition rate: <29.40> %
  swell rate: (61.75 ± 11.27) %
  swell value: 2.33 ± 0.17 mL
[1]; 2.5 mg/kg iv, 6 h
  inhibition rate: <31.64> %
  swell rate: (53.48 ± 11.12) %
  swell value: 2.22 ± 0.15 mL
[1]; 5 mg/kg iv, 0 h
  swell value: 1.47 ± 0.13 mL
[1]; 5 mg/kg iv, 1 h
  inhibition rate: <11.33> %
  swell rate: (60.97 ± 18.09) %
  swell value: 2.36 ± 0.23 mL
[1]; 5 mg/kg iv, 2 h
  inhibition rate: <16.08> %
  swell rate: (60.97 ± 18.41) %
  swell value: 2.35 ± 0.16 mL
[1]; 5 mg/kg iv, 4 h
  inhibition rate: <44.03> %
  swell rate: (45.04 ± 18.30) %
  swell value: 2.12 ± 0.22 mL
[1]; 5 mg/kg iv, 6 h
  inhibition rate: <31.98> %
  swell rate: (49.81 ± 17.26) %
  swell value: 2.19 ± 0.19 mL
[1]; 10 mg/kg iv, 0 h
  swell value: 1.56 ± 0.17 mL
[1]; 10 mg/kg iv, 1 h
  inhibition rate: <40.64> %
  swell rate: (40.81 ± 10.14) %
  swell value: 2.18 ± 0.18 mL
[1]; 10 mg/kg iv, 2 h
  inhibition rate: <42.79> %
  swell rate: (41.56 ± 13.38) %
  swell value: 2.19 ± 0.20 mL
[1]; 10 mg/kg iv, 4 h
  inhibition rate: <65.66> %
  swell rate: (27.64 ± 8.46) %
  swell value: 1.98 ± 0.20 mL
[1]; 10 mg/kg iv, 6 h
  inhibition rate: <67.80> %
  swell rate: (23.58 ± 15.23) %
  swell value: 1.91 ± 0.22 mL
[1]; mice, 10, 5, 2.5 mg/kg iv
  overall effect on carrageenan-induced acute inflammation: able to inhibit carrageenan-induced acute inflammation in mice obviously
[2]; 2.5 mg/kg iv, 0 day
  swell value: 1.03 ± 0.05 mL
[2]; 2.5 mg/kg iv, 20 day
  inhibition rate: <18.95> %
  swell rate: (43.79 ± 12.08%
  swell value: 1.48 ± 0.11 mL
[2]; 2.5 mg/kg iv, 22 day
  inhibition rate: <19.94> %
  swell rate: (48.22 ± 10.27) %
  swell value: 1.53 ± 0.06 mL
[2]; 2.5 mg/kg iv, 23 day
  inhibition rate: <17.70> %
  swell rate: (51.23 ± 9.82) %
  swell value: 1.56 ± 0.06 mL
[2]; 2.5 mg/kg iv, 25 day
  inhibition rate: <16.26> %
  swell rate: (51.66 ± 18.36) %
  swell value: 1.56 ± 0.16 mL
[2]; 2.5 mg/kg iv, 28 day
  inhibition rate: <20.52> %
  swell rate: (41.04 ± 10.92) %
  swell value: 1.45 ± 0.10 mL
[2]; 2.5 mg/kg iv, 31 day
  inhibition rate: <22.73> %
  swell rate: (37.86 ± 11.18) %
  swell value: 1.42 ± 0.10 mL
[2]; 5 mg/kg iv, 0 day
  swell value: 1.03 ± 0.05 mL
[2]; 5 mg/kg iv, 20 day
  inhibition rate: <9.35> %
  swell rate: (48.97 ± 27.82%
  swell value: 1.52 ± 0.21 mL
[2]; 5 mg/kg iv, 22 day
  inhibition rate: <12.39> %
  swell rate: (52.77 ± 21.55) %
  swell value: 1.56 ± 0.15 mL
[2]; 5 mg/kg iv, 23 day
  inhibition rate: <13.87> %
  swell rate: (53.62 ± 14.27) %
  swell value: 1.58 ± 0.13 mL
[2]; 5 mg/kg iv, 25 day
  inhibition rate: <15.62> %
  swell rate: (52.06 ± 18.56) %
  swell value: 1.56 ± 0.19 mL
[2]; 5 mg/kg iv, 28 day
  inhibition rate: <13.17> %
  swell rate: (44.84 ± 25.91) %
  swell value: 1.49 ± 0.28 mL
[2]; 5 mg/kg iv, 31 day
  inhibition rate: <15.64> %
  swell rate: (41.34 ± 13.83) %
  swell value: 1.45 ± 0.13 mL
[2]; 10 mg/kg iv, 0 day
  swell value: 1.04 ± 0.19 mL
[2]; 10 mg/kg iv, 20 day
  inhibition rate: <12.61> %
  swell rate: (47.22 ± 18.60) %
  swell value: <1.52 ± 0.19 mL
[2]; 10 mg/kg iv, 22 day
  inhibition rate: <16.28> %
  swell rate: (50.43 ± 9.45) %
  swell value: 1.54 ± 0.12 mL
[2]; 10 mg/kg iv, 23 day
  inhibition rate: <19.28> %
  swell rate: (50.25 ± 22.06) %
  swell value: 1.54 ± 0.10 mL
[2]; 10 mg/kg iv, 25 day
  inhibition rate: <17.95> %
  swell rate: (50.62 ± 21.43) %
  swell value: 1.54 ± 0.12 mL
[2]; 10 mg/kg iv, 28 day
  inhibition rate: <22.09> %
  swell rate: (40.23 ± 16.26) %
  swell value: 1.44 ± 0.13 mL
[2]; 10 mg/kg iv, 31 day
  inhibition rate: <27.67> %
  swell rate: (35.44 ± 22.50) %
  swell value: 1.38 ± 0.11 mL
[2]; rats, 10, 5, 2.5 mg/kg iv for 8 days
  overall treatment effect on Collagen Type II induced arthritis: able to cure Collagen Type II induced arthritis
